What was measured:
A2A AR = A2A AR (Homo sapiens, UniProt P29274); experiment: Radioligand binding at human A2A AR; conditions: A2A vs A1 and A3 ARs
A1 AR = molecular target: T1, A1 AR (Homo sapiens, UniProt P30542); experiment: Radioligand binding at human A1 AR
T1 sequence (P30542 1-326): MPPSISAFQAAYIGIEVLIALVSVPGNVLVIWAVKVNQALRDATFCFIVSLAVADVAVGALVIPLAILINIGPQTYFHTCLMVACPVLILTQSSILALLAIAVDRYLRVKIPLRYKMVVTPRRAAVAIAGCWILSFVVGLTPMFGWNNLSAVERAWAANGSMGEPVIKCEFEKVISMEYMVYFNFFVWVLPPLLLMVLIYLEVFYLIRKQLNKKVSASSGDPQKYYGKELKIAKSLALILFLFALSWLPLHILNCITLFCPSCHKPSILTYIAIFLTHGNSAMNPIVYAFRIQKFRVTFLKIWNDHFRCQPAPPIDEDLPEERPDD

Sequence of A2A AR (P29274 whole entry): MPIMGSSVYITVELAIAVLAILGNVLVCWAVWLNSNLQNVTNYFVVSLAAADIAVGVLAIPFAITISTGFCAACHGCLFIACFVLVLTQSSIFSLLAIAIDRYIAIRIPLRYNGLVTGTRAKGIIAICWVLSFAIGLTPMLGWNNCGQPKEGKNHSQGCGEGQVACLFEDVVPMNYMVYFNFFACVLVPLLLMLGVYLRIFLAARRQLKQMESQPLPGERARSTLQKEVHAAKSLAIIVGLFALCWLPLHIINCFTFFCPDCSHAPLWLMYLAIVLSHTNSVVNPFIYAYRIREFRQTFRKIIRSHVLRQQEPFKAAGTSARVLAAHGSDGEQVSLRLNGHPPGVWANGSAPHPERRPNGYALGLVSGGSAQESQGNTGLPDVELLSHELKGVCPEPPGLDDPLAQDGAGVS

Selectivity for the A2A AR in comparison to the A1 and A3 ARs (A2A AR): highly selective
Ki (A1 AR): ~10 µM
SMILES: Nc1nc2c(cnn2CCCc2ccc(OCCF)cc2)c2nc(-c3ccco3)nn12 [Compound 5]
